In patent publication US11957699B2, “Composition comprising punicalagin for inhibiting PAR2 activity” (INDUSTRY-ACADEMIC COOPERATION FOUNDATION, YONSEI UNIVERSITY, priority 2018, dated 2024):

Tests used:
PAR2 [1] = target: T1, PAR2 (Homo sapiens, UniProt P55085); assay: Cellular signal changes and inflammatory cytokine secretion by PAR2 receptor activity in human glomerular podocytes; assay type: cell-based; design: endogenous in cells
T1 sequence (P55085 26-397): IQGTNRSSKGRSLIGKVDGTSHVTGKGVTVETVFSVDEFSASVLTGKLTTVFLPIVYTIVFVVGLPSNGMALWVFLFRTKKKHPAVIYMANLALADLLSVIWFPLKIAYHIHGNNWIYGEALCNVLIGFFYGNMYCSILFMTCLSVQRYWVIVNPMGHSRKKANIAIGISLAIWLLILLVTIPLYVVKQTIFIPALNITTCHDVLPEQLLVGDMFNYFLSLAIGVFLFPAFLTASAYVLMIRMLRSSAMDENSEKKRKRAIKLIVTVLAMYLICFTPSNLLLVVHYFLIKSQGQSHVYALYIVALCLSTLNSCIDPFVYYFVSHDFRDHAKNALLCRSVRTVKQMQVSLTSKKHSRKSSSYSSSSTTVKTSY
Description: The effects of punicalagin on cellular signal changes and inflammatory cytokine secretion by PAR2 receptor activity in human glomerular podocytes were evaluated.

[2] = system: conjunctival epithelial cells; assay: IL-6 secretion by house dust mite (HDM) in conjunctival epithelial cells (enzyme immunoassay); assay type: cell-based, human; settings: 10 μg/mL HDM 24 hours
Description: Next, conjunctival epithelial cells showing a high response to the concentration increase of intracellular calcium ions by HDM and PAR2-AP were treated with 1, 3, and 10 μM punicalagin, and after treating with 10 μg/mL HDM for 24 hours, secreted IL-6 cytokines were measured by enzyme immunoassay. As a result, it was confirmed that 1, 3, and 10 μM punicalagin inhibited about 50, 91, and 93% of IL-6 cytokines that were increased by HDM, respectively (panel C of FIG. 5).

PAR2 [3] = target: T1, PAR2; assay: Specificity: intracellular calcium increase by trypsin, PAR1-AP, thrombin and ATP in HT-29 cells; assay type: cell-based; design: endogenous in cells; host or cells: HT-29 colon cancer cells
Description: After colon cancer cells (HT-29) were cultured for 48 hours in a 96-well micro plate with the RPMI1640 culture medium, the culture medium was removed, and then, 100 μL of the Flou4-NW dye mixture was added. While blocking the light, it was stabilized for 1 hour such that a calcium ion dye (Ca^2+ dye) was loaded into the cells. Next, punicalagin was pretreated by concentration (0, 0.3, 1, 3, 10, 30, and 100 μM) for 10 minutes, and by treating 100 nM trypsin, it was measured for about 70 seconds at 1-second intervals to determine whether the concentration changes of intracellular calcium ions by PAR2 activation were an inhibitory effect by punicalagin (panel A of FIG. 2). In the same manner as the above, after punicalagin was pretreated by concentration (0, 1, 3, 10, 30, 100, and 300 μM), by treating 100 μM PAR1-AP (panel B of FIG. 2), 10 unit/mL thrombin (panel C of FIG. 2), and 100 μM ATP (panel D of FIG. 2), the concentration changes in intracellular calcium ions were measured for 70 seconds at 1-second intervals in each case.
In addition, it was compared how much it inhibited an increase in the concentration of intracellular calcium ions by trypsin, PAR1-AP, PAR2-AP, thrombin, and ATP depending on the concentration of punicalagin.

PAR2 [4] = target: T1, PAR2; assay: Increase of intracellular calcium ions by PAR2-AP in HT-29 cells (Fluo4-NW); assay type: cell-based; design: endogenous in cells; host or cells: HT-29 colon cancer cells; settings: HT-29 cells
Description: After colon cancer cells (HT-29) were cultured for 48 hours in a 96-well micro plate with the RPMI1640 culture medium, the culture medium was removed, and then, 100 μL of the Flou4-NW dye mixture was added. While blocking the light, it was stabilized for 1 hour such that a calcium ion dye (Ca^2+ dye) was loaded into the cells. Next, after treating punicalin (0, 3, 10, and 30 μM), punicalagin (0, 0.3, 1, 2, 3, and 10 μM), or ellagic acid (0, 30, and 100 μM) for 10 minutes by concentration, each well was treated with 30 μM PAR2-AP (PAR2-activating peptide, SLIGRL-NH2) to measure the concentration change in intracellular calcium ions.

[5] = rats, 6% punicalagin diet for 37 days; cited from earlier work
PAR2 [6] = target: T1, PAR2; assay: Intracellular calcium increase by house dust mite extract and PAR2-AP in primary cultured conjunctival epithelial cells; assay type: cell-based; design: endogenous in cells; settings: 10 μM, 10 μg/mL HDM extract, 100 μM PAR2-AP
Description: In order to determine whether punicalagin has an effect of inhibiting cytokine secretion by house dust mites (HDM), after removing a culture medium of conjunctival epithelial cells that were primary cultured and differentiated in a transwell, 300 μL of the Flou4-NW dye mixture was added, and then, it was stabilized for 1 hour such that a Ca^2+ dye was loaded into the cells while blocking the light. Next, punicalagin was pretreated by concentration (0, 10, and 30 μM) for 10 minutes, and then, it was treated with a 10 μg/mL house dust mite extract (HDM extract). Afterwards, the concentration change of calcium ions (Ca^2+) was measured for 3 minutes at 1-second intervals, and 100 μM PAR2-AP was treated to measure whether punicalagin inhibited the concentration change of intracellular calcium ions by PAR2 receptor activation.

[7] = Weight change of wild-type mice; assay type: in vivo; settings: 10 mg/kg intraperitoneally at 2-day intervals
Description: In order to determine the toxicity of punicalagin, the effect of NIH3T3 cells on cell viability and the weight change of 8-week-old wild-type mice were evaluated, and the heart, liver, and lung were extracted from 30-week-old lupus mice and were histologically evaluated by performing hematoxylin-eosin staining.

In the case of `O=CC1OC(=O)c2cc(O)c(O)c(O)c2-c2c(cc(O)c(O)c2O)C(=O)OC1C1OC(=O)c2cc(O)c(O)c(O)c2-c2c(O)c(O)c3oc(=O)c4c(c(O)c(O)c5oc(=O)c2c3c54)-c2c(cc(O)c(O)c2O)C(=O)OCC1O` (centres unmarked) [punicalagin, 1,2,3,11,12,13-hexahydroxy-5,10-dioxo-8-[3,4,5,11,17,18,19,22,23,34,35-undecahydroxy-8,14,26,31-tetraoxo-9,13,25,32-tetraoxaheptacyclo[25.8.0.0^2,7.0^15,20.0^21,30.0^24,29.0^28,33]pentatnaconta-1(35),2,4,6,15,17,19,21,23,27,29,33-dodecaen-10-yl]-5,7,8,10-tetrahydrodibenzo[f,h][1,4]dioxecin-7-carbaldehyde], the “expression amounts of VCAM-1 and ICAM-1 increased by PAR2 receptor activity” value (PAR2 [1]) is reported as “significantly reduced”, the “expressions of inflammatory cytokines (IL-6, IFN-γ, TNF-α, and IL-8)” value (PAR2 [1]; concentration-dependent) is reported as “significantly reduced” and the “phosphorylation of ERK 1/2 according to PAR2 receptor activity by PAR2-AP” value (PAR2 [1]; concentration-dependent) is reported as “inhibited”. The “phosphorylation of NF-κB P65 according to PAR2 receptor activity” value (PAR2 [1]; concentration-dependent) was “inhibited”, the “inhibition of IL-6 cytokines increased by HDM” value ([2]; 1 μM) was “about 50%” and the “inhibition of IL-6 cytokines increased by HDM” value ([2]; 3 μM) was roughly 91%. For the same compound, the “inhibition of IL-6 cytokines increased by HDM” value ([2]; 10 μM) was roughly 93%, the “inhibition of increase in concentration of intracellular calcium ions” value (PAR2 [3]; 100 nM trypsin, 100 μM PAR1-AP, 10 unit/mL thrombin or 100 μM ATP, increasing punicalagin concentration) was “effect of inhibiting an increase in the concentration of calcium ions was also improved” and the “selectivity for inhibition of PAR2 activity compared to ATP, thrombin, and PAR1-AP” value (PAR2 [3]; calcium increase) was no less than 10 times. The IC50 (PAR2 [4]; 30 μM PAR2-AP, 10 minutes pretreatment, read-out: IC50, inhibition of the PAR2 receptor (intracellular calcium increase by PAR2-AP)) was 1.45 µM, the “strength of PAR2 receptor inhibition compared to punicalin” value (PAR2 [4]; PAR2-AP) was no less than 10 times and the toxicity [5] was “no toxicity”. For the same compound, the “concentration increases of intracellular calcium ions by house dust mites and PAR2-AP” value (PAR2 [6]) was “all inhibited” and the “weight change in wild-type mice” value [7] was “no weight change”.
